Results as given in ChEMBL document CHEMBL1157847, “Dichloro-4-quinolinol-3-carboxylic acid: synthesis and antioxidant abilities to scavenge radicals and to protect methyl linoleate and DNA” (Eur J Med Chem, 2010).

Experiments:
Format in all cases: functional
[1] = Antioxidant activity against Cu(2+)/GSH-induced DNA damage assessed as TBARS production at 200 uM after 4 hrs relative to control
[2] = Antioxidant activity against beta-carotene bleaching assessed as decrease of absorbance at 0.3 mM after 100 mins relative to control; design: scale not given: the % may be the effect or the level left
[3] = Antioxidant activity assessed as residual galvinoxyl radical scavenging activity at 1.5 mM after 30 mins relative to control
[4] = Antioxidant activity assessed as residual ABTS cationic radical scavenging activity at 1.5 mM after 30 mins relative to control
[5] = Antioxidant activity against hydroxyl radical-induced DNA damage assessed as TBARS production at 400 uM after 30 mins relative to control
[6] = Antioxidant activity against AAPH-induced DNA damage assessed as TBARS production at 200 uM after 4 hrs relative to control
[7] = test system: Radical scavenging activity; assay: Antioxidant activity assessed as residual DPPH radical scavenging activity at 1.5 mM after 30 mins relative to control
[8] = Antioxidant activity against AAPH-induced linoleic acid oxidation assessed as exhausted methyl linoleate at 2 mM after 4 hrs relative to control

Row | SMILES | Activity [1] [%] | Activity [2] [%] | Activity [3] [%] | Activity [4] [%] | Activity [5] [%] | Activity [6] [%] | Activity [7] [%] | Activity [8] [%]
1 | O=C(O)c1cnc2c(Cl)ccc(Cl)c2c1O | 103 | 77.3 | 104 | 99.9 | 84.6 | 95.4 | 94.1 | 62.7
2 | O=C(O)c1cnc2cc(Cl)ccc2c1O | 88.9 | 91.1 | 104 | 102 | 102 | 95 | 94.7 | 107
3 | O=C(O)c1cnc2ccccc2c1O | 96.6 | 77.3 | 102 | 101 | 90.4 | 103 | 94.6 | 113
4 | O=C(O)c1cnc2c(Cl)cc(Cl)cc2c1O | 95.4 | 129 | 104 | 104 | 83.3 | 99.4 | 93.8 | 7.3
5 | O=C(O)c1cnc2c(Cl)c(Cl)ccc2c1O | 111 | 108 | 102 | 97.5 | 88.7 | 97.9 | 93.4 | 41.9
6 | O=C(O)c1cnc2cc(Cl)cc(Cl)c2c1O | 98.3 | 77.3 | 93.5 | 90 | 92.7 | 98.6 | 91.2 | 111
